{
  "source": "patent US20260022142A1",
  "about": "“MACROCYCLIC IMMUNOMODULATORS” (Bristol-Myers Squibb Company, priority 2022, published 2026)",
  "note": "Bridge positions count the residues as written; N and C are the ends. Square brackets hold non-standard residues; d marks the D form. Peptide text beside a SMILES is read from it. * marks the point of attachment. ξ: configuration not given here. Bip = N[C@@H](Cc1ccc(-c2ccccc2)cc1)C(=O)O; Phe(3-Me) = Cc1cccc(C[C@H](N)C(=O)O)c1; Cyclopropanecarbonyl = O=C(C1CC1)*; hArg = N=C(N)NCCCC[C@H](N)C(=O)O; Cha = N[C@@H](CC1CCCCC1)C(=O)O; Cit = NC(=O)NCCC[C@H](N)C(=O)O; Thr(3ξ) = CC(O)[C@H](N)C(=O)O; 12Ado = NCCCCCCCCCCCC(=O)O; hSer = N[C@@H](CCO)C(=O)O; Carboxymethyl = O=C(O)C*; Orn = NCCC[C@H](N)C(=O)O; Aun = NCCCCCCCCCCC(=O)O; Dab = NCC[C@H](N)C(=O)O; Dap = NC[C@H](N)C(=O)O",
  "data": [
    {"biological_target": "T1, PD-1/PD-L1 interaction (PE-labeled human PD-L1-Ig binding to Jurkat cell line over-expressing human PD-1) (Homo sapiens, UniProt Q15116)", "T1 construct": "expressed in transfected cells; host or cells: Jurkat", "T1 sequence (Q15116 25-288)": "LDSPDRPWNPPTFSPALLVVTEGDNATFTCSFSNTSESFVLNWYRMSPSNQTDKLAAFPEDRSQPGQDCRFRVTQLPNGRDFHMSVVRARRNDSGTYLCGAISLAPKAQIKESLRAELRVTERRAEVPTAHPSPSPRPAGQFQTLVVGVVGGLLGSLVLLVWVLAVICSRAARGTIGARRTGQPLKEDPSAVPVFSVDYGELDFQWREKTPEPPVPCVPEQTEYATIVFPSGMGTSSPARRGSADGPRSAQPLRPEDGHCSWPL", "assay": "Jurkat-PD-1 Cell Binding High-Content Screening Assay (CBA)", "format": "cell-based", "details": "Jurkat cell line over-expressing human PD-1; PE-labeled PD-L1-Ig 20 nM final; read-out: Jurkat hPD1-PDL1 IC50", "how_it_was_run": "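Binding of fluorescent PD-L1-Ig (phycoerythrin on Ig tag, 20 nM final, 1 h) measured by high-content imaging of fixed, Hoechst-counterstained Jurkat-hPD-1 cells. Compound added 2 h at 37° C beforehand, in DMEM with 10% fetal calf serum.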", "units": {"IC50": "nM"}, "values": [
      {"compound": "CC(=O)NCCCC[C@H](NC(=O)[C@@H]1CSCC(=O)N[C@@H](CCN)C(=O)N[C@@H](Cc2ccc(OCC(=O)O)cc2)C(=O)N[C@@H](CC(=O)O)C(=O)N[C@@H](Cc2cccc(C)c2)C(=O)N[C@@H](C(C)C)C(=O)N[C@@H](Cc2ccc(-c3ccccc3)cc2)C(=O)N[C@@H](CCCNC(N)=O)C(=O)N[C@@H](CCCN)C(=O)N[C@H](CC(C)C)C(=O)N[C@@H](CN)C(=O)N[C@@H](CC2CCCCC2)C(=O)N[C@@H](C(C)C)C(=O)N[C@@H](C(C)O)C(=O)N1)C(=O)NCCCCCCCCCCC(=O)O", "note": "(stereo partly drawn) [Compound 3563] ({CH2CO}-[Dab]Y(Carboxymethyl)D[Phe(3-Me)]V[Bip][Cit][Orn][dL][Dap][Cha]V[Thr(3ξ)]CK(Ac)[Aun]-OH; thioether N-14)", "IC50": 43.9},
      {"compound": "Cc1cccc(C[C@@H]2NC(=O)[C@H](CC(=O)O)NC(=O)[C@H](Cc3ccc(OCC(=O)O)cc3)NC(=O)[C@H](CCCNC(=N)N)NC(=O)CSC[C@@H](C(=O)N[C@@H](CCO)C(=O)N[C@@H](CCC(=O)O)C(=O)NCCCCCCCCCCCC(=O)O)NC(=O)[C@H](C(C)O)NC(=O)[C@H](C(C)C)NC(=O)[C@H](CC3CCCCC3)NC(=O)[C@H](CCN)NC(=O)[C@@H](CC(C)C)NC(=O)[C@H](CCCN)NC(=O)[C@H](CCCNC(N)=O)NC(=O)[C@H](Cc3ccc(-c4ccccc4)cc3)NC(=O)[C@H](C(C)C)NC2=O)c1", "note": "(stereo partly drawn) [Compound 3564] ({CH2CO}-RY(Carboxymethyl)D[Phe(3-Me)]V[Bip][Cit][Orn][dL][Dab][Cha]V[Thr(3ξ)]C[hSer]E[12Ado]-OH; thioether N-14)", "IC50": 19.5},
      {"compound": "Cc1cccc(C[C@@H]2NC(=O)[C@H](CC(=O)O)NC(=O)[C@H](Cc3ccc(OCC(=O)O)cc3)NC(=O)[C@H](CCCNC(=N)N)NC(=O)CSC[C@@H](C(=O)N[C@@H](CCO)C(=O)NCCCCCCCCCCCC(=O)O)NC(=O)[C@H](C(C)O)NC(=O)[C@H](C(C)C)NC(=O)[C@H](CC3CCCCC3)NC(=O)[C@H](CCN)NC(=O)[C@@H](CC(C)C)NC(=O)[C@H](CCCN)NC(=O)[C@H](CCCNC(N)=O)NC(=O)[C@H](Cc3ccc(-c4ccccc4)cc3)NC(=O)[C@H](C(C)C)NC2=O)c1", "note": "(stereo partly drawn) [Compound 3565] ({CH2CO}-RY(Carboxymethyl)D[Phe(3-Me)]V[Bip][Cit][Orn][dL][Dab][Cha]V[Thr(3ξ)]C[hSer][12Ado]-OH; thioether N-14)", "IC50": 39.4},
      {"compound": "Cc1cccc(C[C@@H]2NC(=O)[C@H](CC(=O)O)NC(=O)[C@H](Cc3ccc(OCC(=O)O)cc3)NC(=O)[C@H](CCO)NC(=O)CSC[C@@H](C(=O)N[C@@H](CCO)C(=O)N[C@@H](CO)C(=O)NCCCCCCCCCCCC(=O)O)NC(=O)[C@H](C(C)O)NC(=O)[C@H](C(C)C)NC(=O)[C@H](CC3CCCCC3)NC(=O)[C@H](CCN)NC(=O)[C@@H](CC(C)C)NC(=O)[C@H](CCCN)NC(=O)[C@H](CCCNC(N)=O)NC(=O)[C@H](Cc3ccc(-c4ccccc4)cc3)NC(=O)[C@H](C(C)C)NC2=O)c1", "note": "(stereo partly drawn) [Compound 3566] ({CH2CO}-[hSer]Y(Carboxymethyl)D[Phe(3-Me)]V[Bip][Cit][Orn][dL][Dab][Cha]V[Thr(3ξ)]C[hSer]S[12Ado]-OH; thioether N-14)", "IC50": 19.2},
      {"compound": "Cc1cccc(C[C@@H]2NC(=O)[C@H](CC(=O)O)NC(=O)[C@H](Cc3ccc(OCC(=O)O)cc3)NC(=O)[C@H](C(C)O)NC(=O)CSC[C@@H](C(=O)N[C@@H](CCC(=O)O)C(=O)N[C@@H](CO)C(=O)NCCCCCCCCCCC(=O)O)NC(=O)[C@H](C(C)O)NC(=O)[C@H](C(C)C)NC(=O)[C@H](CC3CCCCC3)NC(=O)[C@H](CCN)NC(=O)[C@@H](CC(C)C)NC(=O)[C@H](CCCN)NC(=O)[C@H](CCCNC(N)=O)NC(=O)[C@H](Cc3ccc(-c4ccccc4)cc3)NC(=O)[C@H](C(C)C)NC2=O)c1", "note": "(stereo partly drawn) [Compound 3567] ({CH2CO}-[Thr(3ξ)]Y(Carboxymethyl)D[Phe(3-Me)]V[Bip][Cit][Orn][dL][Dab][Cha]V[Thr(3ξ)]CES[Aun]-OH; thioether N-14)", "IC50": 33.5},
      {"compound": "Cc1cccc(C[C@@H]2NC(=O)[C@H](CC(=O)O)NC(=O)[C@H](Cc3ccc(OCC(=O)O)cc3)NC(=O)[C@H](CCCCNC(=N)N)NC(=O)CSC[C@@H](C(=O)N[C@@H](CCCN)C(=O)N[C@@H](CCO)C(=O)NCCCCCCCCCCCC(=O)O)NC(=O)[C@H](C(C)O)NC(=O)[C@H](C(C)C)NC(=O)[C@H](CC3CCCCC3)NC(=O)[C@H](CCN)NC(=O)[C@@H](CC(C)C)NC(=O)[C@H](CCCN)NC(=O)[C@H](CCCNC(N)=O)NC(=O)[C@H](Cc3ccc(-c4ccccc4)cc3)NC(=O)[C@H](C(C)C)NC2=O)c1", "note": "(stereo partly drawn) [Compound 3568] ({CH2CO}-[hArg]Y(Carboxymethyl)D[Phe(3-Me)]V[Bip][Cit][Orn][dL][Dab][Cha]V[Thr(3ξ)]C[Orn][hSer][12Ado]-OH; thioether N-14)", "IC50": 15.1},
      {"compound": "Cc1cccc(C[C@@H]2NC(=O)[C@H](CC(=O)O)NC(=O)[C@H](Cc3ccc(OCC(=O)O)cc3)NC(=O)[C@H](CO)NC(=O)CSC[C@@H](C(=O)N[C@@H](CCO)C(=O)N[C@@H](CO)C(=O)NCCCCCCCCCCCC(=O)O)NC(=O)[C@H](C(C)O)NC(=O)[C@H](C(C)C)NC(=O)[C@H](CC3CCCCC3)NC(=O)[C@H](CCN)NC(=O)[C@@H](CC(C)C)NC(=O)[C@H](CCCN)NC(=O)[C@H](CCCNC(N)=O)NC(=O)[C@H](Cc3ccc(-c4ccccc4)cc3)NC(=O)[C@H](C(C)C)NC2=O)c1", "note": "(stereo partly drawn) [Compound 3569] ({CH2CO}-SY(Carboxymethyl)D[Phe(3-Me)]V[Bip][Cit][Orn][dL][Dab][Cha]V[Thr(3ξ)]C[hSer]S[12Ado]-OH; thioether N-14)", "IC50": 23.6},
      {"compound": "Cc1cccc(C[C@@H]2NC(=O)[C@H](CC(=O)O)NC(=O)[C@H](Cc3ccc(OCC(=O)O)cc3)NC(=O)[C@H](CCCCNC(=N)N)NC(=O)CSC[C@@H](C(=O)N[C@@H](CCN)C(=O)N[C@@H](CO)C(=O)NCCCCCCCCCCCC(=O)O)NC(=O)[C@H](C(C)O)NC(=O)[C@H](C(C)C)NC(=O)[C@H](CC3CCCCC3)NC(=O)[C@H](CCN)NC(=O)[C@@H](CC(C)C)NC(=O)[C@H](CCCN)NC(=O)[C@H](CCCNC(N)=O)NC(=O)[C@H](Cc3ccc(-c4ccccc4)cc3)NC(=O)[C@H](C(C)C)NC2=O)c1", "note": "(stereo partly drawn) [Compound 3570] ({CH2CO}-[hArg]Y(Carboxymethyl)D[Phe(3-Me)]V[Bip][Cit][Orn][dL][Dab][Cha]V[Thr(3ξ)]C[Dab]S[12Ado]-OH; thioether N-14)", "IC50": 16.3},
      {"compound": "Cc1cccc(C[C@@H]2NC(=O)[C@H](CC(=O)O)NC(=O)[C@H](Cc3ccc(OCC(=O)O)cc3)NC(=O)[C@H](CCCCNC(=N)N)NC(=O)CSC[C@@H](C(=O)N[C@@H](CCN)C(=O)N[C@@H](CO)C(=O)NCCCCCCCCCCCC(=O)O)NC(=O)[C@H](CO)NC(=O)[C@H](C(C)C)NC(=O)[C@H](CC3CCCCC3)NC(=O)[C@H](CCN)NC(=O)[C@@H](CC(C)C)NC(=O)[C@H](CCCN)NC(=O)[C@H](CCCNC(=N)N)NC(=O)[C@H](Cc3ccc(-c4ccccc4)cc3)NC(=O)[C@H](C(C)C)NC2=O)c1", "note": "[Compound 3571] ({CH2CO}-[hArg]Y(Carboxymethyl)D[Phe(3-Me)]V[Bip]R[Orn][dL][Dab][Cha]VSC[Dab]S[12Ado]-OH; thioether N-14)", "IC50": 16.9},
      {"compound": "Cc1cccc(C[C@@H]2NC(=O)[C@H](CC(=O)O)NC(=O)[C@H](Cc3ccc(OCC(=O)O)cc3)NC(=O)[C@H](CCCNC(=O)C3CC3)NC(=O)CSC[C@@H](C(=O)N[C@@H](CCCN)C(=O)N[C@@H](CO)C(=O)NCCCCCCCCCCCC(=O)O)NC(=O)[C@H](C(C)O)NC(=O)[C@H](C(C)C)NC(=O)[C@H](CC3CCCCC3)NC(=O)[C@H](CCN)NC(=O)[C@@H](CC(C)C)NC(=O)[C@H](CCCN)NC(=O)[C@H](CCCNC(=N)N)NC(=O)[C@H](Cc3ccc(-c4ccccc4)cc3)NC(=O)[C@H](C(C)C)NC2=O)c1", "note": "(stereo partly drawn) [Compound 3572] ({CH2CO}-[Orn](Cyclopropanecarbonyl)Y(Carboxymethyl)D[Phe(3-Me)]V[Bip]R[Orn][dL][Dab][Cha]V[Thr(3ξ)]C[Orn]S[12Ado]-OH; thioether N-14)", "IC50": 26.1},
      {"compound": "Cc1cccc(C[C@@H]2NC(=O)[C@H](CC(=O)O)NC(=O)[C@H](Cc3ccc(OCC(=O)O)cc3)NC(=O)[C@H](CCCCNC(=N)N)NC(=O)CSC[C@@H](C(=O)N[C@@H](CCCN)C(=O)N[C@@H](CO)C(=O)NCCCCCCCCCCCC(=O)O)NC(=O)[C@H](C(C)O)NC(=O)[C@H](CCO)NC(=O)[C@H](CC3CCCCC3)NC(=O)[C@H](CCN)NC(=O)[C@@H](CC(C)C)NC(=O)[C@H](CCCN)NC(=O)[C@H](CCCNC(=N)N)NC(=O)[C@H](Cc3ccc(-c4ccccc4)cc3)NC(=O)[C@H](C(C)C)NC2=O)c1", "note": "(stereo partly drawn) [Compound 3574] ({CH2CO}-[hArg]Y(Carboxymethyl)D[Phe(3-Me)]V[Bip]R[Orn][dL][Dab][Cha][hSer][Thr(3ξ)]C[Orn]S[12Ado]-OH; thioether N-14)", "IC50": 27},
      {"compound": "Cc1cccc(C[C@@H]2NC(=O)[C@H](CC(=O)O)NC(=O)[C@H](Cc3ccc(OCC(=O)O)cc3)NC(=O)[C@H](CCCCNC(=N)N)NC(=O)CSC[C@@H](C(=O)N[C@@H](CCCN)C(=O)N[C@@H](CO)C(=O)NCCCCCCCCCCCC(=O)O)NC(=O)[C@H](C(C)O)NC(=O)[C@H](C(C)C)NC(=O)[C@H](CC3CCCCC3)NC(=O)[C@H](CCN)NC(=O)[C@@H](CC(C)C)NC(=O)[C@H](CCCN)NC(=O)[C@H](CCCNC(=N)N)NC(=O)[C@H](Cc3ccc(-c4ccccc4)cc3)NC(=O)[C@H](C(C)C)NC2=O)c1", "note": "(stereo partly drawn) [Compound 3575] ({CH2CO}-[hArg]Y(Carboxymethyl)D[Phe(3-Me)]V[Bip]R[Orn][dL][Dab][Cha]V[Thr(3ξ)]C[Orn]S[12Ado]-OH; thioether N-14)", "IC50": 32.3},
      {"compound": "Cc1cccc(C[C@@H]2NC(=O)[C@H](CC(=O)O)NC(=O)[C@H](Cc3ccc(OCC(=O)O)cc3)NC(=O)[C@H](CCCCNC(=N)N)NC(=O)CSC[C@@H](C(=O)N[C@@H](CCCN)C(=O)N[C@@H](CO)C(=O)NCCCCCCCCCCCC(=O)O)NC(=O)[C@H](CO)NC(=O)[C@H](C(C)C)NC(=O)[C@H](CC3CCCCC3)NC(=O)[C@H](CCN)NC(=O)[C@@H](CC(C)C)NC(=O)[C@H](CCCN)NC(=O)[C@H](CCCNC(=N)N)NC(=O)[C@H](Cc3ccc(-c4ccccc4)cc3)NC(=O)[C@H](C(C)C)NC2=O)c1", "note": "[Compound 3576] ({CH2CO}-[hArg]Y(Carboxymethyl)D[Phe(3-Me)]V[Bip]R[Orn][dL][Dab][Cha]VSC[Orn]S[12Ado]-OH; thioether N-14)", "IC50": 17.3}
    ]}
  ]
}
